Legend:
Thioredoxin reductase = conditions: plateau phase PC3 cultures
Procedure: Methods: Lipoate Reduction. Thioredoxin reductase activity was assessed by measuring the rate of lipoate reduction. In brief, A549 or PC3 cells (10,000 cells/well) were plated on 96-well plates and allowed to adhere overnight and grow two additional days until confluent. Cells were treated with MGd, zinc, or 5% mannitol for 2-4 hours, as indicated. Medium was removed, cells were washed with Hanks Balanced Salt Solution (HBSS), and a solution of 5 mM lipoic acid and 1 mM 5,5′-dithiobis(2-nitrobenzoic acid) in HBSS (100 μL/well) was added. Plates were incubated at ambient temperature in the dark. At chosen time intervals, plate absorbance was measured at 405-650 nm. Plate absorbances were normalized to wells containing neither exogenous zinc nor texaphyrin complex to allow plate-to-plate comparison. In some experiments, L-buthionine-[S,R]-sulfoximine (BSO, 100 μM) was added 24 hours prior to MGd or zinc treatment, to inhibit any contribution to lipoate reduction made by glutathione-dependent pathways (28). Actinomycin D (2.5 μg/mL) or cycloheximide (10 μg/mL), where present, was added 1 hour prior to texaphyrin or zinc treatment. Viability was checked on parallel plates using the tetrazolium dye 3-(4,5-dimethylthiazol-2-yl)-5-(3-carboxymethoxyphenyl)-2-(4-sulfophenyl)-2H-tetrazolium (MTS) following the manufacturers protocol (Promega Corp.).

[1] = HPLC analysis of MGd stability in medium from plateau phase cultures; type: physicochemical; conditions: after 24 hours
Procedure: Results: Studies were performed to determine whether the metallothionein transcript up-regulation observed in the microarray analysis could be a consequence of free gadolinium(III) cation, released from MGd into the cell culture medium. […] Since the microarray analysis indicated strong transcript up-regulation after 4 hours of treatment with drug, this time interval was selected for further investigation of RNA transcript levels. RNA was harvested from plateau phase cultures treated with control vehicle, 50 μM MGd, or 5 μM Gd(OAc)3 for 4 hours. […] Thus, even assuming a 10% loss of drug over the initial 4 hour incubation period, the resulting release of Gd(III) ion into the culture medium would be insufficient to induce the observed metallothionein and ZnT1 transcript levels.

Procedure for A549 cells: Methods: Cellular Viability. Cell viability was determined by using propidium iodide (PI) flow cytometric analysis. Cells from plateau phase cultures grown in T-25 flasks were harvested as described above, except that cells present in the growth medium and wash solution were isolated by centrifugation and included in the analysis. Cells were resuspended in 1 mL PBS, an aliquot of 3×10^5 cells transferred to a 4 mL tube, and the cells isolated by centrifugation. Cell pellets were resuspended in PBS supplemented with 2 μg/mL propidium iodide (Sigma), incubated for 5 minutes at ambient temperature, and subjected to flow cytometric analysis. Flow cytometry was performed on a FACSCalibur instrument and data were analyzed using the CellQuest Pro software package (BD Biosciences).

Compound | Lipoate reduction (Thioredoxin reductase) | Effect of MGd on the cytotoxicity of Zn(OAc)2 (A549 cells) | Apparent loss of drug in medium (HPLC) [1] [%]
CC(=O)[O-].CC(=O)[O-].[Zn+2] [Zn(OAc)2, Zinc acetate] | inhibited at lower concentrations of zinc | – | –
CC(=O)[O-].CC(=O)[O-].CCc1c(CC)c2cc3nc(cnc4cc(OCCOCCOCCOC)c(OCCOCCOCCOC)cc4ncc4nc(cc1[n-]2)C(CCCO)=C4C)C(C)=C3CCCO.O.[Gd+3] [MGd, Motexafin gadolinium] | – | potentiated | 4
